SMILES strings stand for the structures.

In this experiment the test system is pancreatic cancer. Put plainly: Overall survival of pancreatic cancer patients treated with gemcitabine (reference population, blood taken before treatment). The format is in vivo, Homo sapiens. The conditions noted are these: patients treated with gemcitabine who have the genetic pro-metastatic fingerprint. The protocol:
Samples of whole blood from 61 patients, taken before treatment, packaged in PAXgene tubes in dry ice (supplier: LabConnect, United States) were received and stored at −80° C. They were designated “week 0”.
The RNA samples were divided into 2 groups: • M4: corresponding to the patients who received gemcitabine after collection of the reference blood samples, and who died before month 4; • M15: corresponding to the patients who received gemcitabine after collection of the reference blood samples, and were alive after month 15.
An additional pharmacogenomic study was also carried out. Samples of the RNA from blood from 61 patients were taken before any treatment, and they were analysed by RT-PCR.
The patients treated with gemcitabine who have the genetic pro-metastatic fingerprint have a low overall survival rate (OS) (5.0 months).

As to `Nc1ccn([C@@H]2O[C@H](CO)[C@@H](O)C2(F)F)c(=O)n1` [Gemcitabine], the overall survival time is recorded as 5.0 months.
